Usually IC50 stands for the concentration at which inhibition is half-maximal.

This note sets out measurements from patent US20020028938A1, “Prostaglandin endoperoxide H synthase biosynthesis inhibitors” (priority 1997, published 2002).

Assay [1] has as its target T1, recombinant human Cox-1 (r-hu Cox1) (Homo sapiens, UniProt P23219).
T1 construct: made in house; host or cells: baculovirus/Sf9 insect cells (microsomes)
Nature of the assay: Recombinant human PGHS-1 enzyme assay (RHUCX1). It counts as biochemical. Here is the method: (§1) To compare the mean responses of the treatment groups, analysis of variance was applied. Percent inhibition values were determined by comparing the individual treatment mean values to the mean of the control group. Linear regression was used to estimate IC50's/ED50's in appropriate assays.
(§2) EIA reagents for prostaglandin determination were purchased from Perseptive Diagnostics, (Cambridge, Mass.). Prostaglandin E2 (PGE2) levels in lavage fluids were determined after the samples were dried under nitrogen and reconstituted with assay buffer. PGE2 levels in enzyme assays or cell culture media were measured against standards prepared in the same milieu. The immunoassays were conducted as recommended by the manufacturer. The EIA was conducted in 96 well microtiter plates (Nunc Roskilde, Denmark) and optical density was measured using a microplate reader (Vmax, Molecular Devices Corp., Menlo Park, Calif.).
(§3) Inhibition of prostaglandin biosynthesis in vitro was evaluated using recombinant human Cox-1 (r-hu Cox1) and Cox-2 (r-hu Cox-2) enzyme assays. […] The reaction was allowed to run for 2.5 minutes at room temperature prior to quenching with HCl and neutralization with NaOH. PGE2 production in the presence and absence of the drug was determined by EIA analysis. The EIA was conducted in 96 well microtiter plates (Nunc Roskilde, Denmark) and optical density was measured using a microplate reader (Vmax, Molecular Devices Corp., Menlo Park, Calif.). EIA reagents for prostaglandin determination were purchased from Perseptive Diagnostics (Cambridge, Mass.). PGE2 levels were measured against standards prepared in the same milieu. The immunoassays were conducted as recommended by the manufacturer.

Assay [2] addresses T2, recombinant human Cox-2 (r-hu Cox-2) (Homo sapiens, UniProt P35354).
T2 construct: made in house; host or cells: baculovirus/Sf9 insect cells (microsomes)
T2 sequence (P35354 18-604): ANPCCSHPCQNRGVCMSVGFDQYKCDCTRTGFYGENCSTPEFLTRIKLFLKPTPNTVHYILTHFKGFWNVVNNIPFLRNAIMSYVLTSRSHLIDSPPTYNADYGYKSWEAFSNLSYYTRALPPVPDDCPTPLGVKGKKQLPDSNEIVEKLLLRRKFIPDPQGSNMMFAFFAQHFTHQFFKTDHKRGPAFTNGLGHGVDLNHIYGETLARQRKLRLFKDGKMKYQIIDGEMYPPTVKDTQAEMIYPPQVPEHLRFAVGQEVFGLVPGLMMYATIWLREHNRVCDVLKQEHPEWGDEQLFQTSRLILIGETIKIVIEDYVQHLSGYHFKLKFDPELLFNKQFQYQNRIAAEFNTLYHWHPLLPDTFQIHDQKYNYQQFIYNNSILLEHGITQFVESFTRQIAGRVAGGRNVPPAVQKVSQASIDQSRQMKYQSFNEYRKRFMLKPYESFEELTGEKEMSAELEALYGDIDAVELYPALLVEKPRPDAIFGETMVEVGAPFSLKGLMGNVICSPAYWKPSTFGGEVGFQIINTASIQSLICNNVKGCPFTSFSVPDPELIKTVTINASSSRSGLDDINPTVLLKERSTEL
The assay is described as follows: Recombinant human PGHS-2 enzyme assay (RHUCX2). As to conditions: for IC50: read-out: RHUCX2 IC50 (parenthetical value). It counts as biochemical. The method, then:
as §1, §2, §3

Setting [3] is: 100 μM, read-out: RHUCX1 % Inh. at Dose.
The mark [4] stands for this setting: 0.1 μM, read-out: RHUCX2 % Inh. at Dose.
Setting [5] is: 1 μM, read-out: RHUCX2 % Inh. at Dose.

T1 sequence (P23219 24-599): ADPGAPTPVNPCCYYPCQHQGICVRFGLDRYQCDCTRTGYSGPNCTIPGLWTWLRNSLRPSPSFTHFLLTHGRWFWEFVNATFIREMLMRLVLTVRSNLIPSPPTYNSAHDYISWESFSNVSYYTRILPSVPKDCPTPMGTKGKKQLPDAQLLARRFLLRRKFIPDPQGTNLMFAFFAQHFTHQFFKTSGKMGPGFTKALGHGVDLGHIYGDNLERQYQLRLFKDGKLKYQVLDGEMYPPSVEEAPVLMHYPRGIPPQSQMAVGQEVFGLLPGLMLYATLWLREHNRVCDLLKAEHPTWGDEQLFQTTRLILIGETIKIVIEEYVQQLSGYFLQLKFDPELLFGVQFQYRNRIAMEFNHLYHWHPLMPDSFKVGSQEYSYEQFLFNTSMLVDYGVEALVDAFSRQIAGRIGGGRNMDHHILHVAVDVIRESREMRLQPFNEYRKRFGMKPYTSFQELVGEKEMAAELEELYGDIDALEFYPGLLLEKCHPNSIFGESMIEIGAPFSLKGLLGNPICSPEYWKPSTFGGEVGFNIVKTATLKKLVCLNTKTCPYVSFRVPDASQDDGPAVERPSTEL

With `CS(=O)(=O)c1ccc(-c2cnn(-c3ccoc3)c(=O)c2-c2ccc(F)cc2)cc1` [Example 183, 2-(3-Furyl)-4-(4-fluorophenyl)-5-[4-(methylsulfonyl)phenyl]-3(2H)-pyrdazinone], the “RHUCX1 % Inh. at Dose (μM)” value in assay [1] (100 μM) was 25 @ 100%. The “RHUCX2 % Inh. at Dose (μM)” value in assay [2] (0.1 μM) was 51 @ 0.1%; in assay [2] (1 μM), 97 @ 1%.
For the compound `CC(C)CCc1c(-c2ccc(S(C)(=O)=O)cc2)cnn(CC(F)(F)F)c1=O` [Example 209], the “RHUCX1 % Inh. at Dose (μM)” value in assay [1] (100 μM) is given as 0 @ 100%. Further, the “RHUCX2 % Inh. at Dose (μM)” value in assay [2] (0.01 μM) is given as 40 @ 0.01%; in assay [2] (0.1 μM), 55 @ 0.1%; in assay [2] (1 μM), 79 @ 1%.
Turning to `CS(=O)(=O)c1ccc(-c2cnn(CC(F)(F)F)c(=O)c2-c2ccc(C(F)(F)F)cc2)cc1` [Example 213, 2-(2,2,2-Trifluoroethyl)-4-(4-trifluoromethylphenyl)-5-[4-(methylsulfonyl)phenyl]-3(2H)-pridazinone], in assay [1] (setting [3]), the inhibition at 100 µM was found to be 0%. Also, the IC50 in assay [2] amounted to 812 nM.
Regarding `Cc1ccc(-c2c(-c3ccc(S(C)(=O)=O)cc3)cnn(CC(F)(F)F)c2=O)cc1F` [Example 219, 2-(2,2,2-Trifluoroethyl)-4-(3-fluoro-4-methylphenyl)-5-[4-(methylsulfonyl)phenyl]-3(2H)-pyridazinone], the inhibition at 100 µM in assay [1] (setting [3]) was determined as 20%. In addition, in assay [2] (setting [4]), the inhibition at 0.1 µM worked out at 75%. In addition, in assay [2] (setting [5]), the inhibition at 1 µM turned out to be 90%.
As to `COc1c(F)cc(-c2c(-c3ccc(S(C)(=O)=O)cc3)cnn(CC(F)(F)F)c2=O)cc1F` [Example 220, 2-(2,2,2-Trifluoroethyl)-4-(3,5-difluoro-4-methoxyphenyl)-5-[4-(methylsulfonyl)phenyl]-3(2H)-pyridazinone], the inhibition at 1 µM in assay [1] (1 μM, read-out: RHUCX1 % Inh. at Dose) is 38%; in assay [2] (setting [5]), 96%. In addition, the inhibition at 100 µM in assay [1] (setting [3]) stood at 51%. Also, the inhibition at 0.1 µM in assay [2] (setting [4]) came to 90%.
Regarding `CS(=O)(=O)c1ccc(-c2cnn(-c3ccc(F)cc3)c(=O)c2C#Cc2ccccc2)cc1` [Example 231, 2-(4-Fluorophenyl)-4-(pheylethynyl)-5-[4-(methylsulfonl)phenyl]-3(2H)-pyridazinone], the “RHUCX1 % Inh. at Dose (μM)” value in assay [1] (100 μM) is 7 @ 100%. For the same compound, the “RHUCX2 % Inh. at Dose (μM)” value is on record as 68 @ 0.1% in assay [2] (0.1 μM) and 90 @ 1% in assay [2] (1 μM).
For `CS(=O)(=O)c1ccc(-c2cnn(-c3ccc(F)c(F)c3)c(=O)c2-c2cccs2)cc1` [Example 237, 2-(3,4-Difluorophenyl)-4-(2-thienyl)-5-[4-(methylsulfonyl)phenyl]-3(2H)-pridazinone], the figures for the “RHUCX1 % Inh. at Dose (μM)” value in assay [1] (1 μM) and in assay [1] (10 μM) were 44 @ 1% and 54 @ 10%, respectively. In addition, the “RHUCX2 % Inh. at Dose (μM)” value in assay [2] (0.1 μM) was 89 @ 0.1%.
Turning to `O=c1c(-c2ccc(F)cc2)c(-c2ccc(S(=O)(=O)C(F)(F)F)cc2)cnn1Cc1ccccc1` [Example 260, 2-Benzyl-4-(4-fluorophenyl)-5-[4-(trifluoromethylsulfonyl)phenyl]-3(2H)-pyridazinone], the inhibition at 100 µM in assay [1] (setting [3]) is 8%. The inhibition at 10 µM in assay [2] (10 μM, read-out: RHUCX2 % Inh. at Dose) was 2%.
Take `CS(=O)(=O)c1ccc(-c2cnn(CC(F)(F)F)c(=O)c2Oc2cc(C(F)(F)F)ccc2F)cc1` [Example 263, 2-(2,2,2-Trifluoroethyl)-4-(2-fluoro-5-trifluoromethylphenoxy)-5-[4-(methylsulfonyl)phenyl]-3(2H)-pridazinone]: the “RHUCX1 % Inh. at Dose (μM)” value in assay [1] (100 μM) is on record as 1 @ 100%. Moreover, the figures for the “RHUCX2 % Inh. at Dose (μM)” value in assay [2] (0.1 μM), in assay [2] (1 μM) and in assay [2] (10 μM) were 53 @ 0.1%, 76 @ 1% and 85 @ 10%, respectively.
Take `COc1ccc(CCOc2c(-c3ccc(S(C)(=O)=O)cc3)cnn(CC(F)(F)F)c2=O)cc1OC` [Example 272]: the “RHUCX1 % Inh. at Dose (μM)” value in assay [1] (100 μM) is 0 @ 100%. The figures for the “RHUCX2 % Inh. at Dose (μM)” value in assay [2] (0.1 μM) and in assay [2] (1 μM) were 55 @ 0.1% and 70 @ 1%, respectively.
In the case of `CS(=O)(=O)c1ccc(-c2cnn(CC(F)(F)F)c(=O)c2OCCN2CCOCC2)cc1` [Example 273], in assay [1] (100 μM), the “RHUCX1 % Inh. at Dose (μM)” value is 16 @ 100%. Also, the “RHUCX2 % Inh. at Dose (μM)” value in assay [2] (1 μM) was 42 @ 1%; in assay [2] (10 μM) it was 54 @ 10%.
In the case of `CS(=O)(=O)c1ccc(-c2cnn(CC(F)(F)F)c(=O)c2SC2CCCC2)cc1` [Example 283], in assay [1] (100 μM), the “RHUCX1 % Inh. at Dose (μM)” value is 0 @ 100%. The “RHUCX2 % Inh. at Dose (μM)” value is 54 @ 0.1% in assay [2] (0.1 μM), 71 @ 1% in assay [2] (1 μM) and 90 @ 10% in assay [2] (10 μM).
For `CS(=O)(=O)c1ccc(-c2cnn(CC(F)(F)F)c(=O)c2Nc2ccc(F)cc2F)cc1` [Example 314], the “RHUCX1 % Inh. at Dose (μM)” value in assay [1] (100 μM) was 7 @ 100%. The entries for the “RHUCX2 % Inh. at Dose (μM)” value in assay [2] (1 μM) and in assay [2] (10 μM) were 4 @ 1% and 51 @ 10%, respectively.
On to `CS(=O)(=O)c1ccc(-c2cnn(Cc3ccccc3)c(=O)c2-c2cc3ccccc3o2)cc1` [Example 318, 2-Benzyl-4-(2-benzofuranyl)-5-[4-(methylsulfonyl)phenyl]-3(2H)-pyridazinone], for which the inhibition at 100 µM in assay [1] (setting [3]) was determined as 23%. Besides, the inhibition at 0.1 µM in assay [2] (setting [4]) came out at 77%. In assay [2] (setting [5]), the inhibition at 1 µM came out at 97%.
As for `CN(Cc1ccccc1)c1c(-c2ccc(S(C)(=O)=O)cc2)cnn(-c2cccc(Cl)c2)c1=O` [Example 354, 2-(3-Chlorophenyl)-4-(N-methylbenzylamnino)-5-[4-(methylsulfonyl)phenyl]-3(2H)-pyridazinone], the “RHUCX1 % Inh. at Dose (μM)” value in assay [1] (100 μM) is listed as “∠@ 100”. The “RHUCX2 % Inh. at Dose (μM)” value in assay [2] (0.1 μM) is reported as 36 @ 0.1%; in assay [2] (1 μM), 45 @ 1%; in assay [2] (10 μM), 45 @ 10%.
As to `CS(=O)(=O)c1ccc(-c2cnn(-c3cccc(Cl)c3)c(=O)c2C2CCCC2)cc1` [Example 362, 2-(3-Chlorophenyl)-4-(cyclopentyl)-5-[4-(methylonylsulfonyl)phenyl]-(2H)-pyridazinone], the “RHUCX1 % Inh. at Dose (μM)” value in assay [1] (100 μM) was 1 @ 100%. The “RHUCX2 % Inh. at Dose (μM)” value was 49 @ 1% in assay [2] (1 μM) and 84 @ 10% in assay [2] (10 μM).
Turning to `Cc1ccc(-c2c(-c3ccc(S(N)(=O)=O)cc3)cnn(-c3ccc(F)cc3)c2=O)cc1F` [Example 387], the entries for the “RHUCX1 % Inh. at Dose (μM)” value in assay [1] (1 μM) and in assay [1] (10 μM) were 60 @ 1% and 57 @ 10%, respectively. The results for the “RHUCX2 % Inh. at Dose (μM)” value in assay [2] (0.01 μM), in assay [2] (0.1 μM) and in assay [2] (1 μM) were 56 @ 0.01%, 65 @ 0.1% and 76 @ 1%, respectively.
As for `NS(=O)(=O)c1ccc(-c2cnn(-c3cccc(Cl)c3)c(=O)c2CCc2ccccc2)cc1` [Example 393, 2-(3-Chlorophenyl)-4-(phenethyl)-5-[4-(aminosulfonyl)phenyl]-3(2H)-pyridazinone], the inhibition at 100 µM in assay [1] (setting [3]) was 15%. Further, the inhibition at 0.1 µM in assay [2] (setting [4]) worked out at 58%. Moreover, the inhibition at 1 µM in assay [2] (setting [5]) came out at 85%.
In the case of `CC(C)CCOc1c(-c2ccc(S(N)(=O)=O)cc2)cnn(-c2ccc(F)cc2)c1=O` [Example 398, 2-(4-Fluorophenyl)-4-(3-methylbutoxy)-5-[4-(aminosulfonyl)phenyl]-3(2H)-pyrdazinone], the inhibition at 100 µM in assay [1] (setting [3]) worked out at 26%. Further, the IC50 in assay [2] was 202 nM.
With `CC(C)COc1c(-c2ccc(S(N)(=O)=O)c(F)c2)cnn(-c2cccc(Cl)c2)c1=O` [Example 412], the inhibition at 100 µM in assay [1] (setting [3]) is 31%. Further, the IC50 in assay [2] came to 2 nM.
As to `CC(C)CCCc1c(-c2ccc(S(C)(=O)=O)cc2)cnn(-c2cccc(Cl)c2)c1=O` [Example 421, 2-(3-Chlorophenyl)-4-(4-methylpentyl)-5-[4-(methylsulfonyl)phenyl]-3(2H)-pyridazinone], in assay [1] (read-out: RHUCX1 IC50 (parenthetical value)), the IC50 amounted to 269 nM. Moreover, the inhibition at 0.01 µM in assay [2] (0.01 μM, read-out: RHUCX2 % Inh. at Dose) was 38%. The inhibition at 0.1 µM in assay [2] (setting [4]) amounted to 81%. Besides, in assay [2] (setting [5]), the inhibition at 1 µM came out at 92%.
